From patent US7576224B2, “Insecticidal (dihalopropenyl) phenylalkyl substituted dihydrobenzofuran and dihydrobenzopyran derivatives” (FMC Corporation, priority 2003, dated 2009)

What was measured:
[1] = system: tobacco budworm (Heliothis virescens [Fabricius]); experiment: Surface-treated diet test against tobacco budworm; assay type: in vivo; details: 0.25 millimolar on the surface of the diet, second instar larvae, five-day exposure; for Percent Growth Inhibition: insect weight relative to untreated controls
From the text: Surface-Treated Diet Test Against Tobacco Budworm
The test compounds of formula I are identified by numbers that correspond to those in Table 1.

[2] = Photostability (rate of photolysis, thin film on glass, Suntest CPS illuminator); assay type: physicochemical; details: for Percent of Compound 12 Half-life: relative photolysis half-life compared to compound 12; for Photolysis Half-life: thin film on glass coverslips, filtered xenon lamp, about 25° C.
Method: These tests were conducted in the following manner:
For each compound tested, three glass microscope coverslips (12 mm in diameter) for each illumination period (1, 3, 6, 12, and 24 hours) were spotted with 10 microliters of a one mg/mL acetonitrile or methanol solution of test compound. Three coverslips were also spotted with test compound and were not illuminated. The material on these non-illuminated coverslips was analyzed at the end of the experiment as described below to determine the test compound stability on glass. The solvents in each 10 microliter solution on each coverslip were allowed to evaporate leaving a thin film of test compound on each coverslip. Three of the coverslips representing the zero hour illumination period were then placed in a 20 mL scintillation vial. In the vial was placed one mL of acetonitrile, which extracted the test chemical from the coverslip. The solution was then transferred to a two-dram vial for analysis by HPLC. The average HPLC peak area generated by this sample defined the initial level of test compound. The remaining coverslips were then placed in the water-cooled chamber of the exposure platform of a Suntest CPS illuminator (Heraeus Instruments GmbH; Bereich Original Hanau, Hersaeusstrasse R-14, Postfach 1563, D-6450 Hanau 1). The exposure platform was covered with a quartz plate and maintained at about 25° C. for the duration of the test. The Suntest CPS illuminator employs a filtered xenon lamp, which provides illumination of a similar spectrum and intensity as sunlight. Three coverslips for each test compound were removed from the illuminator at 1, 3, 6, 12, and 24 hours of continuous illumination. Approximately eight hours of illumination is equivalent to one summer day at 40° N latitude. The three coverslips from each of the illumination periods were treated as described above and analyzed by HPLC. The average HPLC peak area from each of these illumination periods represents a diminished amount of test compound when compared to the initial level of test compound as determined from the zero hour illumination sample. The percents of test compound remaining from each of these illumination periods were used to generate a degradation curve from which a half-life in hours was determined for each test compound.

[3] = system: tobacco budworm (Heliothis virescens [Fabricius]); experiment: Foliar treated test against tobacco budworm (chick pea plants); assay type: in vivo; details: rate of application 30 ppm; foliage; 96 hour exposure
From the text: (§1) Foliar Treated Test Against Tobacco Budworm and Cabbage Looper
(§2) Nine-to-ten day-old chick pea plants (Cicer arietinum) were sprayed at 15 psi to runoff on both upper and lower leaf surfaces with solutions of test compound to provide application rates as high as 1000 ppm of test chemical. The solvent used to prepare the solutions of test compound was 10% acetone or methanol (v/v) and 0.1% of the surfactant octylphenoxypolyethoxyethanol in distilled water. Four replicates, each containing one chick pea plant, for each rate of application of test compound were sprayed. The treated plants were transferred to a hood where they were kept until the spray had dried.
(§3) The four chick pea plants for each replicate treated with test compound as described above were removed from their pots by cutting the stems just above the soil line. The excised leaves and stems from the four plants in each replicate were placed in individual 237 mL (8-ounce) paper cups, which contained a moistened filter paper. Five second-instar (7 days old) tobacco budworms or cabbage loopers (7 days old) were counted into each cup, taking care not to cause injury. An opaque plastic lid was placed on each cup, which was then held in a growth chamber for a 96 hour exposure period at 25° C., 50% relative humidity and photo-period of 12 hours light and 12 hours dark. At the end of the 96 hour exposure period the cups were opened, and the numbers of dead, moribund, and live insects were counted. Using the insect counts, the efficacy of the test compound was expressed in percent control. Percent control is derived from the total number of dead insects (TD) plus the total number of moribund insects (TM) as compared to the total number of insects (TI) in the test:
(§4) The condition of the test plants was also observed for phytotoxicity and for reduction of feeding damage as compared to an untreated control.

cabbage looper = experiment: Whole plant foliar treated test against cabbage looper; assay type: in vivo, Trichoplusia ni; details: cabbage plants sprayed, 96 hour exposure; for Percent Control at 25 g: rate of application 25 g; for Percent Control at 50 g: rate of application 50 g; for Percent Control at 100 g: rate of application 100 g
Method: Whole Plant Foliar Treated Test Against Cabbage Looper
For each rate of application of test compound, a 15 mL aliquot of test solution was prepared. Sufficient test compound was dissolved in 1.5 mL of acetone to provide an application rate as high as 1000 grams/Ha. Each solution was then added to 13.5 mL of water containing 300 ppm of a surfactant. There were four replicates for each rate of application of test compound, and all tests included a known chemical standard as well as a standard of water and surfactant and untreated checks.
A maximum of 14 appropriately sized cabbage plants for each rate of application and replicate were arranged in a 28 pot plastic flat and sprayed with the 15 mL sample of test compound using an traveling boom sprayer equipped with a cone spray tip at a rate of 30 gallons/acre under a pressure of 40-44 psi. The untreated checks were sprayed first, followed by the test compounds and standards, all in order of lowest to highest rates of application. Once the spraying was complete, the test plants were allowed to air-dry on the conveyor on which they were sprayed.
For each rate of application and replication, sufficient Petrie dishes, 50×9 mm in size, were lined with filter paper disks and each were moistened with 0.5 mL of distilled water. From each replicate cabbage plant at least three 2.5 cm disks were cut Each leaf disk was then placed in an individual Petrie dishes with the adaxial side of the leaf facing up. Following placement of the leaf disks, two neonate cabbage looper larvae were placed on each disk. Upon completion of infestation each Petrie dish was covered and held in a growth chamber for a 96 hour exposure period at 25° C., 40%-60% relative humidity and photo-period of 12 hours light and 12 hours dark. At the end of the 96 hour exposure period the Petrie dishes were opened, and the numbers of dead, moribund, and live insects were counted. Using the insect counts, the efficacy of the test compound was expressed in percent control. Percent control is derived from the total number of dead insects (TD) plus the total number of moribund insects (TM) as compared to the total number of insects (TI) in the test:
[formula] The condition of the test plants was also observed for phytotoxicity and for reduction of feeding damage as compared to an untreated control.

[4] = system: cabbage looper (Trichoplusia ni [Hubner]); experiment: Foliar treated test against cabbage looper (chick pea plants); assay type: in vivo; details: rate of application 30 ppm; foliage; 96 hour exposure
From the text: as §1, §2, §3, §4

[5] = system: Diamondback Moth (Plutella xylostella); experiment: Foliar treated test against diamondback moth (cabbage leaf discs); assay type: in vivo; details: rate of application 30 ppm; foliage; 96 hour exposure
Method: Four replicates, each containing one cabbage leaf disc, for each rate of application of test compound were dipped. The four cabbage leaf discs for each replicate treated were immersed for five seconds in the solution of test compound as described above. Each discs was then placed in individual 50 mm Petrie dishes containing a filter paper 42.5 mm in diameter that had been moistened with 100 μL of water. The uncovered Petrie dishes were then set aside until the leaf discs were dry. After this time, two third-instar diamondback moth larvae (10-14 days old) were carefully placed on each leaf disc. A tight-fitting lid was then placed on each Petrie dish, which was which was then held in a growth chamber for a 96 hour exposure period at 25° C., 50% relative humidity and photo-period of 12 hours light and 12 hours dark. At the end of the 96 hour exposure period the Petrie dishes were uncovered, and the numbers of dead, moribund, and live insects were counted. Using the insect counts, the efficacy of the test compound was expressed in percent control by methods set forth above in tests against the tobacco budworm and cabbage looper.

Structure (SMILES) | Percent Mortality [1] | Percent Growth Inhibition [1] | Percent of Compound 12 Half-life [2] | Photolysis Half-life [2] | Percent Control TBW (Tobacco Budworm) [3] | Percent Control at 25 g (cabbage looper) | Percent Control at 50 g (cabbage looper) | Percent Control at 100 g (cabbage looper) | Percent Control CL (Cabbage Looper) [4] | Percent Control DBM (Diamondback Moth) [5]
CC1(C)Cc2cccc(OCCCCOc3c(Cl)cc(OCC=C(Cl)Cl)cc3Cl)c2O1 [Compound 12, 5-(3,3-Dichloroprop-2-enyloxy)-2-[4-(2,2-dimethyl(2,3-dihydrobenzo[2,3-b]furan-7-yloxy))butoxy]-1,3-dichlorobenzene] | 100% | 100% | 100% | 19 h | 88% | 88% | 100% | 100% | 96% | 91%
CC1(C)Cc2cccc(OC(=O)NCCCOc3c(Cl)cc(OCC=C(Cl)Cl)cc3Cl)c2O1 [Compound 53, N-{3-[4-(3,3-dichloroprop-2-enyloxy)-2,6-dichlorophenoxy]propyl}(2,2-dimethyl(2,3-dihydrobenzo[2,3-b]furan-7-yloxy))-carboxamide] | 100% | 100% | – | – | – | – | – | – | – | –
CC1(C)Cc2cc(C(F)(F)F)cc(OCCCCOc3c(Cl)cc(OCC=C(Cl)Cl)cc3Cl)c2O1 [Compound 20, 5-(3,3-dichloroprop-2-enyloxy)-2-{4-[2,2-dimethyl-5-(trifluoromethyl)(2,3-dihydrobenzo[2,3-b]furan-7-yloxy)]-butoxy}1,3-dichlorobenzene] | 100% | 100% | – | – | – | – | – | – | – | –
ClC(Cl)=CCOc1cc(Cl)c(OCCCCOc2cccc3ccoc23)c(Cl)c1 [Compound W] | – | – | 58% | 11 h | 62% | – | – | – | 20% | 60%
Cc1cc2cccc(OCCCCOc3c(Cl)cc(OCC=C(Cl)Cl)cc3Cl)c2o1 [X] | – | – | 32% | 6 h | 96% | 8% | 8% | 13% | 50% | 85%
ClC(Cl)=CCOc1cc(Cl)c(OCCCCCc2cc3ccccc3o2)c(Cl)c1 [Y] | – | – | 21% | 4 h | 5% | – | – | – | – | –
ClC(Cl)=CCOc1cc(Cl)c(OCCCCOc2cccc3occc23)c(Cl)c1 [Z] | – | – | 21% | 4 h | 60% | – | – | – | 20% | 60%
